This is an account of results in patent US12139488B2, “Pyrido[3,2-d]pyrimidine compounds uses thereof for treating a proliferative disease” (Universite de Montreal, priority 2021, dated 2024).

Molecules are shown by their SMILES. Read-outs that look alike come from different tables or passages of the source.

What all share (type): cell-based, human
For assay [1], the system named is NCIH1755 cells (BRAF G469A). Briefly: Proliferation inhibition (CellTiter-Glo), NCIH1755. As to conditions: NCIH1755, 3 days, read-out: NCIH1755 Prolif. EC50. How it is done:
(§1) All cancer cell lines (A375, A101D, A2058, RKO, HT29 SK-MEL 30, IPC298, HepG2, HCT-116, Lovo, SWV620, SW480, NCI-H358, NCI-H2122, Calu-6, NCIH2087, NCIH1755, NCIH1666 and Mewo) were obtained from ATCC and cultured in RPMI-1640 medium (Gibco) supplemented with 5% heat inactivated fetal bovine serum (FBS, Wisent) at 37° C. under 5% CO2. Cells were maintained in T175 flasks (Greiner). They were passaged by removing the culture medium, washing once in 10 mL of room temperature Phosphate Buffered Saline (PBS; Wisent) and incubating at 37° C. with 2 mL of 0.05% Trypsin (Thermo-Fisher). Trypsin was then inactivated by adding complete growth medium and the cells were then replated in a T175 culture dish at the appropriate dilution. All cell lines were routinely tested for mycoplasma contamination. Tissue type and mutational status of each cell line can be found in Table B.
(§2) CellTiter-Glo® viability analysis was conducted on cells plated in 100 μL of complete RPMI-1640 growth medium in 96-well flat-bottomed white opaque plates (Greiner or Croning) at a density indicated in Table E (for each CCL, number of cells plated per well of a 96-well plate to perform the CellTiter-Glo® cell viability assay). The cell density in cells/cm^2 would correspond to cell number divided by the area of one well of a 96-well plate (0.32 cm^2). […]
(§3) After 3 days of incubation, the growth media were removed by aspiration and 60 μL of diluted CellTiter-Glo® reagent (10 μL CellTiter-Glo® reagent+50 μL of PBS) was added to each well. […] Luminescence signals were then acquired on a Synergy Neo2 plate reader (Biotek).
(§4) The effect of each compound dilution on the proliferation of cancer cell lines was expressed in % inhibition and calculated as follows. […]
(§5) The ability of each compound to inhibit proliferation was expressed as a EC50 value obtained by plotting the effect values for each data point of a dilution series and fitting the obtained curves using a log(agonist) versus response-variable slope (four parameters) function using GraphPadPrism (V7.0) or Dotmatics Screening Ultra platform.
In general terms: ATP-based viability assays read luminescence as a measure of living cells.

Assay [2] has as its system pERK in SK-MEL30 cells (NRAS-Q61K). Description: Phospho-ERK inhibition (AlphaLISA), SK-MEL30. As to conditions: for SK-MEL30 pERK % Ymin: SK-MEL30, value in parentheses. How it is done: as §1
(§6) AlphaLISA® SureFire® Ultra™ p-ERK 1/2 (Thr202/Tyr204) analysis was conducted on cells plated in 100 μL of complete RPMI-1640 growth medium in 96-well flat-bottomed transparent dishes (Costar) at a density indicated in Table C. Cells were maintained overnight at 37° C. under 5% CO2 before treatment with compounds' dilution series for one hour. The cell density in cells/cm^2 corresponds to cell number divided by the area of one well of a 96-well plate ([…]).
(§7) In a dilution series 100 μL/well of test substance dilution prepared in complete RPMI-1640 growth media was added to the cells. The dilution series is selected so that ten concentrations cover a range from 10 μM to 0.33 nM. If necessary the initial concentration of 10 μM is increased to 100 μM or lowered to 1 μM (as in the case of A375 and H1666 cells, which are generally more sensitive to the compounds) and further dilution is carried out accordingly. The final concentration of DMSO in the assay is set at 0.5%.
(§8) After treatment, media was removed and cells were lysed in 50 μL of 1× AlphaScreen Ultra Lysis Buffer (Perkin Elmer). The AlphaLISA® SureFire® Ultra™ p-ERK 1/2 (Thr202/Tyr2O4) (PerkinElmer) reactions were performed with 5 μL of cell lysate according to the manufacturer's specifications in 384-well proxyplates (Perkin Elmer) followed by overnight incubation of the reactions at room temperature in a humidified chamber. After completion of the reactions, the signals were recorded on an EnVision plate reader (Perkin Elmer) using built in AlphaLISA® settings.
(§9) The effect of each compound dilution on the pERK signal was expressed in % inhibition and calculated as follows. An internal 100% inhibition control ([…] trametinib, cat #HY-10999; MedChem Express; CAS #871700-17-3) was included in each plate and used as a measure of pERK background. First, the value obtained for trametinib was subtracted from each data point. The average of DMSO (vehicle) controls (set as 0% inhibition) was established and used to calculate % inhibition: % inhibition=100*(1-((pERK signalcompound)/(pERK signalDMSO)))
(§10) The ability of each compound to inhibit pERK signal was expressed as an IC50 value obtained by plotting the inhibition values for each data point of a dilution series and fitting the obtained curves using a log(agonist) versus response-variable slope (four parameters) function using GraphPadPrism (V7.0) or Dotmatics Screening Ultra platform.
(§11) When present, paradoxical pERK induction is inferred from the negative % inhibition values observed in the pERK IC50 curves of a compound.
On the technique in general: In Alpha technology, singlet oxygen from a donor bead excites a nearby acceptor bead.

The subject of assay [3] is pERK in NCI-H358 cells (KRAS-G12C). Briefly: Phospho-ERK inhibition (AlphaLISA), NCI-H358. Conditions: for IC50: NCI-H358; for NCI-H358 pERK % Ymin: NCI-H358, value in parentheses. How it is done:
as §1, §6, §7, §8, §9, §10, §11

For assay [4], the system named is pERK in IPC298 cells (NRAS-Q61L). Briefly: Phospho-ERK inhibition (AlphaLISA), IPC298. Conditions: for IPC298 pERK % Ymin: IPC298, value in parentheses. How it is done: as §1, §6, §7, §8, §9, §10, §11
Assay [5] has as its system HCT-116 cells (KRAS G13D). Description: Proliferation inhibition (CellTiter-Glo), HCT116. Conditions: HCT116, 3 days, read-out: HCT116 Prolif. EC50. How it is done: as §1, §2, §3, §4, §5
Assay [6] has as its system SK-MEL30 cells (NRAS-Q61K). Description: Proliferation inhibition (CellTiter-Glo), SK-MEL30. As to conditions: SK-MEL30, 3 days, read-out: SK-MEL30 Prolif. EC50. How it is done:
as §1, §2, §3, §4, §5

As for `CC1(O)CCN(c2cccc3c2ncn3-c2ccc3ncnc(Nc4c(F)ccc(NS(=O)(=O)c5cccc(Cl)c5Cl)c4F)c3n2)CC1` [Example 524], the EC50 (commonly the midpoint of the concentration-response curve) was 300 to 3000 nM in assay [1], 300 to 3000 nM in assay [5] and less than 30 nM in assay [6]. Also, the 50% inhibitory concentration (IC50) – broadly, the concentration at which inhibition is half-maximal – is less than 30 nM in assay [2] (SK-MEL30), 30 to 300 nM in assay [3] and 30 to 300 nM in assay [4] (IPC298). Also, in assay [2], the “SK-MEL30 pERK % Ymin” value is −13%. Also, the “NCI-H358 pERK % Ymin” value in assay [3] is −13%. Moreover, in assay [4], the “IPC298 pERK % Ymin” value came out at 13%.
Consider `Cc1ccc2c(Nc3cccc(Cl)c3F)nccc2c1NC(=O)c1csc2c(N)ncnc12` [Belvarafenib, reference compound], for which the EC50 in assay [1] (Homo sapiens, NCI-H1755, 72 h) was greater than 3000 nM; in assay [5] (Homo sapiens, HCT-116, 72 h), 300 to 3000 nM; in assay [6] (Homo sapiens, SK-MEL-30, 72 h) it was less than 30 nM. Further, the concentration for half-maximal inhibition (IC50) was less than 30 nM in assay [2] (Homo sapiens, SK-MEL-30); 30 to 300 nM in assay [3] (Homo sapiens); 30 to 300 nM in assay [4] (Homo sapiens, IPC-298). Also, the “SK-MEL30 pERK % Ymin” value in assay [2] is recorded as −45%. Moreover, in assay [3], the “NCI-H358 pERK % Ymin” value is recorded as −122%. In addition, the “IPC298 pERK % Ymin” value in assay [4] is listed as −63%.
As to `Nc1cccc2c1ncn2-c1ccc2ncnc(Nc3c(F)ccc(NS(=O)(=O)c4cccc(Cl)c4Cl)c3F)c2n1` [Example 99], the EC50 in assay [1] is less than 30 nM; in assay [5] it was 300 to 3000 nM; in assay [6] it was less than 30 nM. The values for the half-maximal inhibitory concentration (IC50) in assay [2] (SK-MEL30), in assay [3] and in assay [4] (IPC298) were less than 30 nM, 30 to 300 nM and 30 to 300 nM, respectively. Besides, the “SK-MEL30 pERK % Ymin” value in assay [2] is −1%. In addition, the “NCI-H358 pERK % Ymin” value in assay [3] is 11%. Besides, the “IPC298 pERK % Ymin” value in assay [4] is listed as −2%.
